The text below walks through data of article PMC4894417, “Quantitative High-Throughput Profiling of Environmental Chemicals and Drugs that Modulate Farnesoid X Receptor” (Scientific Reports, 2014).

Like-named read-outs stand apart in the source and are kept apart here.

Data set [1] addresses T1, human FXR (Homo sapiens, UniProt Q96RI1). In words: FXR-bla reporter gene assay, agonist mode (qHTS). (In general: Reporter assays use an easily measured gene product as a stand-in for the process of interest.)
Data set [2] concerns the target androgen receptor (AR) (Homo sapiens, UniProt P10275). In words: AR-bla reporter gene assay (agonist and antagonist modes).
Data set [3] has as its system FXR-UAS-bla HEK293T cells. Kind of data set: Cell viability assay (CellTiter Glo) in the same well as FXR-bla. Background: In ATP-based viability assays light output follows the ATP content of the culture.
Data set [4] addresses peroxisome proliferator-activated receptor delta (PPARδ) (Homo sapiens, UniProt Q03181). Kind of data set: PPARδ-bla reporter gene assay (agonist and antagonist modes).
Data set [5] addresses estrogen receptor alpha (ERα) (Homo sapiens, UniProt P03372). Kind of data set: ERα-bla reporter gene assay (agonist and antagonist modes).
For data set [6], the target named is T1, human FXR. Kind of data set: FXR-bla reporter gene assay, antagonist mode (CDCA-induced transactivation).
Data set [7] addresses vitamin D receptor (VDR) (Homo sapiens, UniProt P11473). In words: VDR-bla reporter gene assay (agonist and antagonist modes).
The target of data set [8] is peroxisome proliferator-activated receptor gamma (PPARγ) (Homo sapiens, UniProt P37231). Kind of data set: PPARγ-bla reporter gene assay (agonist and antagonist modes).
peroxisome proliferator-activated receptor gamma (PPARγ), sequence (P37231 with tags, fused parts or gaps limits assumed): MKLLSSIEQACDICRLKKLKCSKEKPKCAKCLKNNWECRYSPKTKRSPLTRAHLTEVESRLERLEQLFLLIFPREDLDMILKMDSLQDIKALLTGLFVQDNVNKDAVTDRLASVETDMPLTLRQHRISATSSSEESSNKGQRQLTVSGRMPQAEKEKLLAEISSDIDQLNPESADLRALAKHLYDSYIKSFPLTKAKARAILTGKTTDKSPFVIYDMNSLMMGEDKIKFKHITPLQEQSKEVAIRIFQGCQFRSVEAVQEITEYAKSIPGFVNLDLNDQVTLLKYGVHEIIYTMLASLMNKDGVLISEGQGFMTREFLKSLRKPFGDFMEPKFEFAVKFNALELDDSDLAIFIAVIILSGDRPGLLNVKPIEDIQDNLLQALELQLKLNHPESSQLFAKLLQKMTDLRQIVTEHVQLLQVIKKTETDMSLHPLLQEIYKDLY
Data set [9] in a line: Cell viability assay (CellTiter Glo) in the same well as FXR-bla. The conditions noted are these: human, FXR-UAS-bla HEK293T cells.
The target of data set [10] is T2, FXR-LBD (Homo sapiens, UniProt Q96RI1).
T2 construct: The glutathione S-transferase (GST)-tagged FXR-LBD protein; purchased Life Technologies
T2 sequence (Q96RI1 262-486 limits assumed): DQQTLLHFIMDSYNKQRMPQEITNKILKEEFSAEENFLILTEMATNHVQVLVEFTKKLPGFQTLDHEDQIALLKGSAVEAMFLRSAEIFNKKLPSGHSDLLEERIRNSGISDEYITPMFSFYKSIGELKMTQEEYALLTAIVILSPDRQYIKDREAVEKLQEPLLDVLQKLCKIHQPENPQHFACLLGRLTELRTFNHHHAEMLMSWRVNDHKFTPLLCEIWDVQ
Kind of data set: FXR TR-FRET coactivator recruitment assay, antagonist mode (50 μM CDCA). Format: biochemical. The conditions noted are these: Table 1; in the presence of 50 μM CDCA. (In general: In TR-FRET formats the signal depends on donor and acceptor labels being close together.)

In data set [11] the target is T2, FXR-LBD. Kind of data set: FXR TR-FRET coactivator recruitment assay, agonist mode. The data set is classed as biochemical. The conditions noted are these: Table 1; coactivator SRC2-2 recruitment.

peroxisome proliferator-activated receptor delta (PPARδ), sequence (Q03181 with tags, fused parts or gaps limits assumed): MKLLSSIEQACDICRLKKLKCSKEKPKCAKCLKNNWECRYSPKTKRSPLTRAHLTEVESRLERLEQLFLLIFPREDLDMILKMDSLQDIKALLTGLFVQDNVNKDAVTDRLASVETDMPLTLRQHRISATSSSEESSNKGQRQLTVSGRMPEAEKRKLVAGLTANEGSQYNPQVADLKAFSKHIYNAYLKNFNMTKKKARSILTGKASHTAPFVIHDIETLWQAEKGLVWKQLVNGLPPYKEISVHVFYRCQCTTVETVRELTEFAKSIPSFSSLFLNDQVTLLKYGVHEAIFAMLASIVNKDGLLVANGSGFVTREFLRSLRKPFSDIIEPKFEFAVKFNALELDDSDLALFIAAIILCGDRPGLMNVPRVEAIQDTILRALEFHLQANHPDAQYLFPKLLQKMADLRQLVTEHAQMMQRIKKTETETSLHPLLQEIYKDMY
T1 sequence (Q96RI1 with tags, fused parts or gaps limits assumed): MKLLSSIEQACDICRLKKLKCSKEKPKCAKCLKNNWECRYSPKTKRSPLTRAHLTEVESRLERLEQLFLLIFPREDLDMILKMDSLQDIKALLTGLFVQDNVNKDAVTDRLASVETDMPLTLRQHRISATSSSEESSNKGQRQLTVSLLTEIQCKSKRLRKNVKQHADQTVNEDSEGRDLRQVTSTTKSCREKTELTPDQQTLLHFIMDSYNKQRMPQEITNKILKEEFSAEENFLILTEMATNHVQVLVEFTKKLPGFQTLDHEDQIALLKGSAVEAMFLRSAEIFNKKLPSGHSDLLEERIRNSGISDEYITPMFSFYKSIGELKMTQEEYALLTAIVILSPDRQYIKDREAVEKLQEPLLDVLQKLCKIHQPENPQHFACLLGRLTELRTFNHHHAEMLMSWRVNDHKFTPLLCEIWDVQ
androgen receptor (AR), sequence (P10275 with tags, fused parts or gaps limits assumed): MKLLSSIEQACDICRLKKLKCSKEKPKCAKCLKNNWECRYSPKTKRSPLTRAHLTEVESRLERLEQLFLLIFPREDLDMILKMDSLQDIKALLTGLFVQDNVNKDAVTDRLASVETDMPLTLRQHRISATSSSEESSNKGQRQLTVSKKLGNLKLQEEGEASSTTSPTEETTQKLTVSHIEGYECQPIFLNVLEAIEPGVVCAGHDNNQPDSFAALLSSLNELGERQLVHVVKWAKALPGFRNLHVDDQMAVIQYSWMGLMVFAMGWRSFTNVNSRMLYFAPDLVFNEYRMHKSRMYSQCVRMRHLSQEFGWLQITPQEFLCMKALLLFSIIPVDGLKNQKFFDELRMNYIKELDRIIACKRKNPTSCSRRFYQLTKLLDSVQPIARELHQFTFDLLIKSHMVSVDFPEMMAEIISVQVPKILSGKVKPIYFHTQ
estrogen receptor alpha (ERα), sequence (P03372 with tags, fused parts or gaps limits assumed): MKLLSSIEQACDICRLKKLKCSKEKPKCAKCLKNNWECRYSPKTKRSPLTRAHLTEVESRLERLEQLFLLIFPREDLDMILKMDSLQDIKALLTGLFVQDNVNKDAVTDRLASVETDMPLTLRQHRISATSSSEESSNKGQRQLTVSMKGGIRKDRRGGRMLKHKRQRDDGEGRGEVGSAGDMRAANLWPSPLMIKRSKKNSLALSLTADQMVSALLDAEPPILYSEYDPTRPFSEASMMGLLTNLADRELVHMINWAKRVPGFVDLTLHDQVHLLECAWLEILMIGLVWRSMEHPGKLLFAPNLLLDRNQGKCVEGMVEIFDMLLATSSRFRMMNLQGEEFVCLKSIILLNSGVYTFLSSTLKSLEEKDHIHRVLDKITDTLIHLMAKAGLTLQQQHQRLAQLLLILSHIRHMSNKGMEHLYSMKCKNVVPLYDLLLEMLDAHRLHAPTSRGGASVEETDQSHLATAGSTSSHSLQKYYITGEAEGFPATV
vitamin D receptor (VDR), sequence (P11473 with tags, fused parts or gaps limits assumed): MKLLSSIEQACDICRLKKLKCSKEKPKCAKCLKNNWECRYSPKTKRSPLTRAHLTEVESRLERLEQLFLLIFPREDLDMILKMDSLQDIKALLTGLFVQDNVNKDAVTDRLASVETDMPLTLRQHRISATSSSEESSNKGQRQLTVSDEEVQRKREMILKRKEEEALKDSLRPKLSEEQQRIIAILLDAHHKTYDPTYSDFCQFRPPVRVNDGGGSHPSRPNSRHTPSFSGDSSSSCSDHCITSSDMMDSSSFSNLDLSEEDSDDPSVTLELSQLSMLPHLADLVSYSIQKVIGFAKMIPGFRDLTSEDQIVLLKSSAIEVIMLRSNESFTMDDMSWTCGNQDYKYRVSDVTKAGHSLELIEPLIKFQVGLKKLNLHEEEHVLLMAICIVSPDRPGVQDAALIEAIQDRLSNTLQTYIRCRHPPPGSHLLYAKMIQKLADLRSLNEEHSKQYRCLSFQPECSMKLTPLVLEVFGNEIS

As a reminder, the EC50 is the concentration giving half of the maximal effect. Higher therefore signals weaker potency. Usually IC50 stands for the concentration that gives 50% inhibition. Read a low IC50 as inhibition by little substance. For the molecule `COc1cccc2c1C(=O)c1c(O)c3c(c(O)c1C2=O)C[C@@](O)(C(=O)CO)C[C@@H]3O[C@H]1C[C@H](N)[C@H](O[C@@H]2CCCCO2)[C@H](C)O1` [Pirarubicin], in data set [1], the EC50 stood at 16.9 ± 11 µM and the “FXR agonist mode Efficacy” value was determined as 20 ± 9%. Also, the “AR activity” value in data set [2] was “mixed agonist/antagonist response”. Also, the “Cytotoxicity IC50” value in data set [3] (Table S1, primary screening) is “Inactive”. In [4], the “PPARδ activity” value is given as “antagonist response”. The “ERα activity” value in [5] was “mixed agonist/antagonist response”. Moreover, the “FXR antagonist mode Efficacy” value in data set [6] is on record as 60 ± 23%. Besides, the IC50 in [6] (FXR antagonist mode IC50) turned out to be 21.3 ± 15.6 µM. Moreover, the “VDR activity” value in [7] is listed as “antagonist response”. For the same molecule, in data set [8], the “PPARγ activity” value is on record as “antagonist response”.
For the molecule `CCOC(=O)C1=C(C)NC(C)=C(C(=O)OCC)C1c1ccccc1/C=C/C(=O)OC(C)(C)C` [Lacidipine], a half-maximal effect in [1] (EC50) was put at 23.5 ± 10.1 µM. The “FXR agonist activity” value in data set [1] (FXR-bla assay) is “activated”. For the same molecule, in data set [1] (Table S1, primary screening, CDCA 100%), the “FXR agonist mode Efficacy” value is 70 ± 41%. Besides, the “AR activity” value in data set [2] was “activated”. Moreover, the “Cytotoxicity Efficacy” value in data set [3] (Table S1, primary screening) turned out to be 56 ± 39%. The same molecule came in with a half-inhibitory concentration (IC50) at 16 h in data set [9] of 54.5 ± 39.5 µM. Besides, in data set [4], the “PPARδ activity” value is recorded as “activated”. The “ERα activity” value in data set [5] is on record as “activated”. Further, the midpoint of inhibition in data set [6], the IC50, lay at 32.3 ± 2.1 µM. Besides, in data set [6] (Table S1, primary screening, 50 µM CDCA), the “FXR antagonist mode Efficacy” value came to 55 ± 20%.
With `CC(=O)[C@]1(O)Cc2c(O)c3c(c(O)c2[C@@H](O[C@H]2C[C@H](N)[C@H](O)[C@H](C)O2)C1)C(=O)c1ccccc1C3=O` [Idarubicin], a half-maximal response in [1] (EC50) required 1.37 ± 0.38 µM. Further, the “FXR-bla, agonist Efficacy” value in [1] (Table 1, activation as percent of positive control (CDCA 100%), mean ± SD of 3) stood at 42 ± 16%. For the same molecule, in [1] (Table S3, FXR-active drugs), the “FXR agonist EC50” value is reported as “Inactive”. For the same molecule, the “AR activity” value in data set [2] was “mixed agonist/antagonist response”. Also, in [3] (Table 1, mean ± SD of 3 experiments), the “Cell viability IC50” value is given as “Inactive”. For the same molecule, the “FXR TR-FRET, antagonist Efficacy” value in data set [10] is 162 ± 41%. Also, the “PPARδ activity” value in data set [4] is given as “antagonist response”. The “ERα activity” value in [5] is “mixed agonist/antagonist response”. The “FXR-bla, antagonist Efficacy” value in data set [6] (Table 1, inhibition as percent of positive control (guggulsterone), 50 μM CDCA) stood at 107 ± 3%. Moreover, the “FXR antagonist Efficacy” value in data set [6] (Table S3, 50 µM CDCA) is 105 ± 11%. For the same molecule, the “FXR TR-FRET, agonist EC50” value in data set [11] was “Inactive”. Further, the “VDR activity” value in data set [7] was “antagonist response”. In data set [8], the “PPARγ activity” value is reported as “antagonist response”.
As to `COC(=O)C1=C(C)NC(COC(N)=O)=C(C(=O)OC(C)C)C1c1cccc(Cl)c1Cl` (stereo not drawn) [Lemildipine], the “AR activity” value in data set [2] is “activated”. Further, in data set [4], the “PPARδ activity” value is given as “activated”. Besides, the “ERα activity” value in data set [5] is on record as “activated”.
